Experiments:
[1] = Solid form stability on storage at elevated relative humidity (XRPD); assay type: physicochemical
Text: X-Ray powder diffraction patterns were collected on a Bruker AXS C2 GADDS or Bruker AXS D8 Advance diffractometer.
X-Ray Powder Diffraction patterns were collected on a Bruker D8 diffractometer using Cu Kα radiation (40 kV, 40 mA), θ−2θ goniometer, and divergence of V4 and receiving slits, a Ge monochromator and a Lynxeye detector. The instrument was performance checked using a certified Corundum standard (NIST 1976). The software used for data collection was Diffrac Plus XRD Commander v2.5.0 and the data were analyzed and presented using Diffrac Plus EVA v 11.0.0.2 or v 13.0.0.2. Samples were run under ambient conditions as flat plate specimens using powder. Approximately 5 mg of the sample was gently packed into a cavity cut into polished, zero-background (510) silicon wafer. The sample was rotated in its own plane during analysis. The details of the data collection are: • Angular range: 2 to 42° 2θ • Step size: 0.05° 2θ • Collection time: 0.5 s·step^−1

[2] = Gravimetric Vapour Sorption (GVS); assay type: physicochemical
Method: In some embodiments, sorption isotherms were obtained using a SMS DVS Intrinsic moisture sorption analyzer, controlled by SMS Analysis Suite software. The sample temperature was maintained at 25° C. by the instrument controls. The humidity was controlled by mixing streams of dry and wet nitrogen, with a total flow rate of 200 ml·min−1. The relative humidity was measured by a calibrated Rotronic probe (dynamic range of 1.0-100% RH), located near the sample. The weight change (mass relaxation) of the sample as a function of % RH was constantly monitored by the microbalance (accuracy ±0.005 mg). Typically 5-20 mg of sample was placed in a tared mesh stainless steel basket under ambient conditions. The sample was loaded and unloaded at 40% RH and 25° C. (typical room conditions). A moisture sorption isotherm was performed as outlined below (2 scans giving 1 complete cycle). The standard isotherm was performed at 25° C. at 10% RH intervals over a 0.5-90% RH range.
The sample was recovered after completion of the isotherm and re-analyzed by XRPD.

[3] = Solubility assessment at various pH levels (solubility profile); assay type: physicochemical; details: 0.15M NaCl solution, saline or isotonic, thermodynamic from solid
Method: For solubility assessment at various pH levels sufficient material to produce a maximum concentration of 10 mg·ml^−1 of API was treated with 0.15M NaCl solution and then the pH adjusted with HCl or NaOH solutions to achieve the desired pH levels. The suspensions were allowed to equilibrate for 2 hours and the pH measured and adjusted if necessary. Suspensions were then filtered and the amount of dissolved API quantified by HPLC against a standard reference solution.
Analysis was performed on an Agilent HP1100 series system equipped with a diode array detector and using ChemStation software vB.02.01-SR1.
The solubility of both the free acid and amorphous sodium salt was determined at a range of pH values.

[4] = Metabolite identification in hepatocytes; assay type: in vitro ADME, rat, dog, monkey, human; details: 30 μM Compound 1
Method: Rat, dog, monkey, or human hepatocytes were thawed according to the supplier's instructions. Cells were counted using the Trypan Blue method, and then diluted to 1×10^6 viable cells/ml with KB medium. Compound 1 was tested at 30 μM and incubated for up to 2 hours in rat hepatocytes and 4 hours in dog, monkey or human hepatocytes at 37° C. Reactions were terminated with addition of 3 times incubation volume of acetonitrile, centrifuged, and supernatants were transferred, nitrogen blow dried and reconstituted in 50% acetonitrile in water for LC/MS analysis.
(§1) LC/MS/MS analysis was carried out with a Sciex API-4000Qtrap tandem mass spectrometer (Applied Biosystems/Life Technologies, Carlsbad, Calif.) interfaced to a high-performance liquid chromatography system consisting of an Agilent 1200 series pump (Foster City, Calif.) and a LEAP Technologies PAL autoinjector (Carrboro, N.C.).
(§2) Parent/metabolite analysis was conducted in the positive ion mode (ESI) by multiple reaction monitoring of parent. The mobile phases contained 10 mM ammonium acetate in water with 0.05% formic acid (solvent A) and 10 mM ammonium acetate in 50% acetonitrile/50% methanol with 0.05% formic acid (solvent B). For Compound 1, the flow rate was maintained at 1 mL/min and the total run time was 2.5 min. Analytes were separated on a YMC ODS-AQ column (2.1×150 mm; 3 μm) and eluted with a linear gradient as follows: • 1. mobile phase was held for 0.5 min at 5% B, • 2. B was increased from 5% to 95% over the next 0.2 min, • 3. B was held constant for 1.3 min at 95%, and • 4. B was returned to the initial gradient conditions.
(§3) GSH adducts were investigated in microsomes, hepatocytes and rat bile using several methods including the neutral loss of pyroglutamate (129 Da) as well as a precursor ion scans of Compound 1 (105 Da, 318 Da and 438 Da).
For metabolite quantitation, the flow rate was maintained at 0.25 mL/min and the total run time was 60 min. Analytes were separated using a linear gradient as follows: • 1. mobile phase was held for 5 min at 5% B, • 2. B was increased from 5% to 95% over the next 45 min. • 3. […]

[5] = Metabolites generated in vivo (rat bile and urine, rat and dog plasma); details: Compound 2 IV 2 mg/kg, bile duct cannulated rats
Method: Compound 2 (2 mg/kg) was administered intravenously (IV) to fasted rats as a solution in 0.9% saline via a bolus injection into the jugular vein (2 mg/mL; […]).
Rats with surgically placed bile duct and jugular vein cannula were purchased from Charles River Laboratories and allowed to acclimate for 2 days. Compound 2 was intravenously dosed (2 mg/kg) to three rats as a solution in 0.9% saline (2 mg/mL; 1 mL/kg). Bile samples were collected at time-points 0-2, 2-5 and 5-8, and urine samples were collected at time-points 0-4 and 4-8 hrs post-dose in 8 mL scintillation vials and stored at −40° C. until analysis.
Concentrations of Compound 1 in rat plasma were determined by LC-MS/MS after protein precipitation. Rat plasma (100 μL) was treated with 400 μL of internal standard solution (ISTD, buspirone in acetonitrile containing 1.5% acetic acid) to precipitate proteins. Samples were vortexed and then centrifuged for 10 min at approximately 4,000 rpm (3700×g) at 4° C. (Beckman centrifuge, Brea, Calif.).
as §2
For metabolite quantitation, the flow rate was maintained at 0.25 mL/min and the total run time was 60 min. Analytes were separated using a linear gradient as follows: • 1. mobile phase was held for 5 min at 5% B, • 2. B was increased from 5% to 95% over the next 45 min. • 3. B was held constant for 5 min at 95%, and • 4. B was returned to the initial gradient conditions

[6] = Metabolite identification in liver microsomes; assay type: in vitro ADME, rat, dog, monkey, human; details: 30 μM Compound 1, 60 minutes
Method: To determine the qualitative metabolic profile, 30 μM of Compound 1 was incubated aerobically with rat, dog, monkey, or human liver microsomes (1 mg/mL). The incubations were performed in phosphate buffer at pH 7.4, 37° C., with the reaction initiated by the addition of P-NADPH, GSH and/or UDPGA (1, 5 and 2 mM final concentration, respectively). The reaction was terminated by the addition of 3 times incubation volume of acetonitrile after 60 minutes. The sample was centrifuged and the supernatant was transferred, nitrogen blow dried and reconstituted in 50% acetonitrile in water for LC/MS analysis.
as §1, §2, §3
For metabolite quantitation, the flow rate was maintained at 0.25 mL/min and the total run time was 60 min. Analytes were separated using a linear gradient as follows: • 1. mobile phase was held for 5 min at 5% B, • 2. […]

[7] = 40° C./75% RH for one week, sodium salt

Cc1noc(-c2ccc(-c3ccc(C4(C(=O)[O-])CC4)cc3)cc2)c1NC(=O)O[C@H](C)c1ccccc1.[Na+] [Amorphous Compound 2, 1-{4′-[3-methyl-4-((R)-1-phenyl-ethoxycarbonylamino)-isoxazol-5-yl]-biphenyl-4-yl}-cyclopropanecarboxylic acid, sodium salt]
XRPD / solid form after storage [1, 7]: remains largely amorphous | change of form after GVS analysis (XRPD) [2]: No change of form is observed | mass gain between 0% and 90% relative humidity ([2]; 25° C.): more than 20%

Cc1noc(-c2ccc(-c3ccc(C4(C(=O)[O-])CC4)cc3)cc2)c1NC(=O)O[C@H](C)c1ccccc1.[Na+] [Compound 2 (Amorphous)]
solubility at 2 h ([3]; Target pH 3, pH adjusted with HCl or NaOH): < 1 µg/mL | solubility at 2 h ([3]; Target pH 4, pH adjusted with HCl or NaOH): < 1 µg/mL | solubility at 2 h ([3]; Target pH 5, pH adjusted with HCl or NaOH): < 1 µg/mL | solubility at 2 h ([3]; Target pH 6, pH adjusted with HCl or NaOH): 1.7 µg/mL | solubility at 2 h ([3]; Target pH 7, pH adjusted with HCl or NaOH): 300 µg/mL | solubility at 2 h ([3]; Target pH 8, pH adjusted with HCl or NaOH): 5600 µg/mL | solubility at 2 h ([3]; Target pH 9, pH adjusted with HCl or NaOH): 17000 µg/mL | solubility at 2 h ([3]; Target pH 11, pH adjusted with HCl or NaOH): 16000 µg/mL

Cc1noc(-c2ccc(-c3ccc(C4(C(=O)ON[C@H](C=O)CCC(=O)O)CC4)cc3)cc2)c1NC(=O)O[C@H](C)c1ccccc1 [Compound M1]
metabolite observed in hepatocytes [4]: major metabolites | metabolite observed in rat bile [5]: major metabolites | metabolite observed in liver microsomes [6]: major metabolites

Cc1noc(-c2ccc(-c3ccc(C4(C(=O)O)CC4)cc3)cc2)c1NC(=O)O[C@H](C)c1cccc(O)c1 [Compound M4]
metabolite observed in hepatocytes [4]: observed | metabolite observed in rat bile [5]: observed | metabolite observed in liver microsomes [6]: observed

Cc1noc(-c2ccc(-c3ccc(C4(C(=O)[O-])CC4)cc3)cc2)c1NC(=O)O[C@H](C)c1ccccc1.[Na+] [Crystalline Compound 2 (Pattern 1), 1-{4′-[3-methyl-4-((R)-1-phenyl-ethoxycarbonylamino)-isoxazol-5-yl]-biphenyl-4-yl}-cyclopropanecarboxylic acid, sodium salt]
XRPD / solid form after storage ([1]; 25° C./95% RH, a week): no loss of crystallinity | XRPD / solid form after storage [1, 7]: no loss of crystallinity | hygroscopicity (comparison) [2]: lower hygroscopicity than its amorphous counterpart

— patent publication US20170121295A1, “POLYCYCLIC LPA1 ANTAGONIST AND USES THEREOF” (AMIRA PHARMACEUTICALS, INC., priority 2010, published 2017)
